Test system: corn (Zea mays) plants
Assay: Corn plants treated with glyphosate with and without PGA soil drench: dry biomass and leaf area (Experiment 1)
Format: in vivo
Conditions: 7 days after planting
Method: Corn seeds were sown in standard 10 cm diameter pots in peat-based media (Fafard #2/Sunshine Mix #8 soilless media: 75% Canadian sphagnum peat moss, 20% perlite, 5% vermiculite, trace: dolomitic limestone, wetting agent, silicon). Plants were grown under the following environmental conditions: • Temperature: 30° C. day/23° C. • Relative humidity: 60-70% • Photoperiod: 16 hours light/8 hours dark • Light intensity: 800-1000 μMols/m^2/s Treatments were administered 5 days after planting. In experiment 1, glyphosate was applied at 1%, 10%, and 100% of label rate, with and without PGA (0.137 g/L), as outlined in the table below. In Experiment 2, Bayer All-in-One® herbicide was applied at 10% and 100% of the label rate, with and without PGA (0.137 g/L). In both treatments, control plants received water. In both experiments, herbicide was applied as a 0.5 mL droplet by pipet on the 1st fully expanded leaf; PGA was applied as a 50 mL soil drench. Plants were grown in a completely randomized design for an additional 2 days to allow the treatments to take effect. At 7 days after planting, plants were photographed, and destructively harvested for leaf area and dry biomass.

SMILES | Avg(DryWt) (1% Label Rate Glyphosate, 0.0 g/L PGA) [g] | Avg(DryWt) (10% Label Rate Glyphosate, 0.0 g/L PGA) [g] | Avg(DryWt) (100% Label Rate Glyphosate, 0.0 g/L PGA) [g] | Avg(DryWt) (0.137 g/L PGA drench with 1% Label Rate Glyphosate) [g] | Avg(DryWt) (0.137 g/L PGA drench with 10% Label Rate Glyphosate) [g] | Avg(DryWt) (0.137 g/L PGA drench, 0 Glyphosate) [g]
O=C(O)CNCP(=O)(O)O [Glyphosate, glyphosate] | 0.12 | 0.06 | 0.05 | – | – | –
O=C1CC[C@@H](C(=O)O)N1 [PGA, pyroglutamic acid] | – | – | – | 0.10 | 0.10 | 0.15

From patent US20240373844A1, “PYROGLUTAMIC ACID AS AN HERBICIDE SAFENER AND METHODS OF USE THEREOF” (Verdesian Life Sciences U.S., LLC, priority 2021, published 2024)
